# Test results from PMC10666288, “Unveiling the Catalytic Mechanism of a Processive Metalloaminopeptidase” (Biochemistry, 2023).
# pKd: −log10 of the molar value. Where “and” joins values, the source holds several entries; their conditions need not be identical. Equal values may be shown once. Read-outs that look alike come from different tables or passages of the source.
# Legend:
# Set-up in all cases: GG stays after cleavage) (N); made in house; host or cells: E. coli BL21(DE3)
# PaPepA [1] = target: T1, PaPepA (Pseudomonas aeruginosa, UniProt Q02RY8); assay type: biochemical
# T1 sequence (Q02RY8 whole entry): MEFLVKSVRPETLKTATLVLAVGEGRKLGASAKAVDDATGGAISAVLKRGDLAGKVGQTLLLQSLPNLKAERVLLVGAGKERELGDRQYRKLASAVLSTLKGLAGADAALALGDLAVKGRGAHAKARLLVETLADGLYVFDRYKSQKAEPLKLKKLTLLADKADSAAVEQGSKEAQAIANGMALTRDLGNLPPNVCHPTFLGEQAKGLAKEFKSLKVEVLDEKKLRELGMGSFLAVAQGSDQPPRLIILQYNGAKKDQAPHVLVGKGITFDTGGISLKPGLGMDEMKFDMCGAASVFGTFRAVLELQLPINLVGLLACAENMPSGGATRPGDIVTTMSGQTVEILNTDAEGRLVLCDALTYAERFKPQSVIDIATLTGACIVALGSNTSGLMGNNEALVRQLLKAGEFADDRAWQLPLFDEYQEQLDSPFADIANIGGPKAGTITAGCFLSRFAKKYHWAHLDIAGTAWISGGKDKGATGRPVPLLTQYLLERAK
# PaPepA [2] = target: T1, PaPepA; assay: Pre-steady-state stopped-flow kinetics with global fit; assay type: biochemical
# Experimental: An Applied Photophysics SX20 stopped-flow spectrofluorimeter was used to perform kinetic measurements under pre-steady-state conditions. The instrument was equipped with a xenon lamp, a 5 μL mixing cell, and a circulating water bath to maintain constant temperature. All reactions were carried out in 100 mM HEPES (pH 8.0) and 50 mM KCl at 25 °C. Enzyme and metal ions were kept in one syringe, while the other substrate (Leu-pNA or Leu-AMC) was kept in the second syringe. The reaction was triggered by rapid mixing of 55 μL from each syringe. Three traces with 10,000 points per trace were collected per experiment.
# For absorbance measurements, product formation was monitored by reading the pNA absorbance at 405 nm (5 mm path length). Multiple turnover rates were measured in the presence of saturating concentrations of both metal and Leu-pNA. PaPepA was present at 1 or 10 μM, MnCl2 was present at 3 mM, and Leu-pNA was present at 250 μM. For fluorescence measurements, a path length of 1 mm was used. Reactions were followed by monitoring the appearance of a 7-amino-4-methylcoumarin (AMC) fluorophore following PaPepA-catalyzed breakdown of Leu-AMC. An excitation wavelength of 341 nm was used with a 400 nm cutoff filter for the emission. Slits were 1 nm for excitation and 2 nm for emission.
# Experiments under single turnover conditions monitored fluorescence change with a detector voltage of 300 V, 0.1 μM Leu-AMC, 1.5 mM MnCl2, and varying PaPepA (0.5, 1, 2, 4, 8, 16, or 32 μM). Experiments under multiple turnover conditions monitored fluorescence change with a detector voltage of 250 V, 50 μM Leu-AMC, 1.2 μM PaPepA and varying concentrations of MnCl2 (0.2, 0.4, 0.6, 1.2, 2.4, 6, 9, 12, 18, 24, 60, 120, 1200, or 3600 μM).
# Calibration curves of known concentrations of AMC were performed at detector voltages of 250 and 300 V. STO and MTO curves were divided by the slope of these calibration curves to convert the change in fluorescence observed to the concentration of AMC produced.
# Pre-steady-state data were imported into KinTek Global Explorer and fit to linear or single-exponential equations using the aFit function to obtain standard deviation estimates. A kinetic model with five steps was considered, and rate constants and outputs were fitted according to this model. Initial estimates for rate constants were based on kcat and KM values. The FitSpace Editor was employed to determine confidence intervals for each of the rate constants. More details including model fitted and parameters used are available in the Supporting Information.
# Supporting information note 4: Kintek Global Explorer fitting of stopped flow data Both MTO and STO pre-steady-state data were fit according to the mode described in Figure 4A with scaling factors for each fluorescent species (EP and P) to account for differences in AMC fluorescence whilst in complex with PaPepA versus free in solution. Scaling factors were different across STO and MTO experiments as both were carried out using different detector voltages.
# The model that best fitted acquired data was as below, where F is metal free enzyme, E1 is PaPepA with one Mn2+ ion, E is PepA with two Mn2+ ions, S is Leu- […]
# For fitting, k1 and k-1 ratios were constrained (linked) based KD for Mn2+ binding as measured by ITC (12nM). Initially, k2 and k-2 were allowed to vary without constraints, and values best fitted as well as Fitspace lower and upper boundaries are reported in Table 2. The value for k1 was best fitted as diffusion limited, and therefore was fixed in further fitting cycles. The best fitted value for k-2 was high and unconstrained, and therefore also fixed at 1000 s-1 for further fitting cycles. k3, k-3, k4, and k5 were not constrained. Multiple iterations of fitting were performed, and best fit values recorded. k1, k2, k3, k-3, k4, and k5 were evaluated using FitSpace Explorer to generate confidence intervals for each of these rate constants. […]
# PaPepA [3] = target: T1, PaPepA; assay type: biochemical; remark: listed apart in the source
# Description: Viscosity effects were studied by using sucrose as a viscogen. Relative viscosities for different concentrations of sucrose were taken from Bazelyansky et al.[27] Concentrations of viscogen were as follows: 14% sucrose, ηrel = 1.5; 24% sucrose, ηrel = 2.2; and 32% sucrose, ηrel = 2.9.
# Viscosity effects were fit to the following equation, where kinetic parameter0 and kinetic parameterη are kcat or kcat/KM in the […] of viscogen, respectively, ηrel is the relative viscosity of the solution, and m is the slope. [drawing 4] 4
# All measurements were performed in triplicate.
# PaPepA [4] = target: T1, PaPepA; assay: Room-temperature EPR spectroscopy Mn2+ titration; conditions: 20 μM PaPepA, 1:0.9 enzyme:Mn^2+ binding model, to be taken as upper limit
# Experimental: EPR spectra were obtained with a Bruker EMX 10/12 spectrometer running Xenon software and equipped with an ELEXSYS Super Hi-Q resonator at an operating frequency of ∼9.5 GHz with a 100 kHz modulation. EPR spectra for Mn titrations were recorded at room temperature using a 160 mT field sweep centered at 350 mT, a time constant of 40.96 ms, a conversion time of 133.53 ms, and a 480-point resolution. An attenuation of 10 dB (20.7 mW power) and a modulation amplitude of 1 mT were used. Spectra were phase- and background-corrected, and the double integral was obtained using the Xenon software.
# For acquiring EPR spectra, 20 μM PaPepA was used in 100 mM HEPES pH 7.5, 50 mM KCl with increasing concentration of MnCl2: 0–30 μM in steps of 2, 35, and 40 μM (18 steps). For the calibration curve, the same buffer and steps were employed in the absence of enzyme.
# [5] = multiple turnover, 50 μM Leu-AMC, […] PaPepA
# [6] = H2O (0% PEG-8000), MnCl2 varied
structure (smiles),measurement,setting,value
[Mn+2] [Mn^2+],KACT,"PaPepA [1]; 5 % PEG 8000, MnCl2 varied",0.19 ± 0.03
same,kcat/KACT,"PaPepA [1]; 5 % PEG 8000, MnCl2 varied",2.2 ± 0.4
same,kcat,"PaPepA [1]; 5 % PEG 8000, labelled component varied, other saturating, in 1/s",0.43 ± 0.02
same,"k1, best-fitted value","PaPepA [2]; F + Mn = E1, global fit of MTO and STO data",1000 ± 53 μM^–1 s^–1
same,molar excess of metal over PaPepA at half maximal rate,PaPepA [2]; [5],24 fold
same,molar excess of metal over PaPepA at plateau,PaPepA [2]; [5],300 fold
same,KACT,PaPepA [3]; [6],0.19 ± 0.01
same,kcat/KACT,PaPepA [3]; [6],2.2 ± 0.2
same,kcat,"PaPepA [3]; H2O (0% PEG-8000), labelled component varied, other saturating, in 1/s",0.409 ± 0.009
same,Slope (sucrose) on kcat/KACT,"PaPepA [3]; sucrose as viscogen, Mn2+ variation",-0.10 ± 0.06
same,Slope (sucrose) on kcat,"PaPepA [3]; sucrose as viscogen, labelled component varied",0.14 ± 0.05
same,pKd,PaPepA [4],6.76 and ~6.76
